As usually defined, the EC50 is the midpoint of the concentration-response curve. Usually pEC50 stands for the EC50 on a negative log10 scale, so that one unit is a factor of ten.

pEC50: −log10 of the molar value. Read-outs that look alike come from different tables or passages of the source.

The record followed here is patent US20250223404A1, “SHAPED ARTICLE COMPRISING A POLY(ARYL ETHER SULFONE) (PAES) POLYMER AND METHOD OF MAKING USING MELT PROCESSING” (Solvay Specialty Polymers USA, LLC, priority 2022, published 2025).

This assay deals with T1, human Estrogen receptor alpha (ERα) (Homo sapiens, UniProt P03372).
T1 construct: expressed in transfected cells; host or cells: GeneBLAzer ER-α-UAS-bla GripTite 293 cells (stably integrated)
T1 sequence (P03372 311-547 limits assumed): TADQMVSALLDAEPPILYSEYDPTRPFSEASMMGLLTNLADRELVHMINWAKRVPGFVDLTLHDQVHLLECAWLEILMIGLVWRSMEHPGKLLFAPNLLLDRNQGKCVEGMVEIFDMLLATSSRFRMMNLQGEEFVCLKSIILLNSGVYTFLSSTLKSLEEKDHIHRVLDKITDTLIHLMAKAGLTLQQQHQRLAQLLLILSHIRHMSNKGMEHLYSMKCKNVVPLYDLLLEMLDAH
Kind of assay: GeneBLAzer Cell-Based Nuclear Receptor Assay (beta-lactamase reporter), ER-α-UAS-bla GripTite 293 cells. The settings on record: for EC50: estrogen agonist activity, ER-α-UAS-bla GripTite 293 cells, monomers in DMSO, 7 to 250000 nM, read-out: EC50 (nM) response value to the estrogen receptor alpha; for estrogenic activity on ERα cells compared with BPA, BPS and BP: in words; for pEC50: estrogen agonist activity on ERα cells, read-out: EC50 value. As to the method:
The response value “EC50” was measured by using the GeneBLAzer® Cell-Based Nuclear Receptor Assay technology which uses the GeneBLAzer®.
The monomers (see Table 7) were dissolved in 100% biological-grade DMSO at a concentration of 7 to 250000 nM (nanomolar). The ER-α-UAS-bla GripTite™ 293 cells were used to measure EC50. The higher the EC50 value is, the weaker the estrogenic agonist activity is for the monomer tested.
The GeneBLAzer® ER-α-UAS-bla GripTite™ cells contain a ligand-binding domain (LBD) of the human Estrogen receptor alpha (ERα) fused to a DNA-binding domain of GAL4 plasmid stably integrated in the GeneBLAzer® UAS-bla GripTite™ cell line. The GeneBLAzer® UAS-bla GripTite™ cells stably express a beta-lactamase reporter gene under the transcriptional control of an upstream activator sequence (UAS). When an estrogenic agonist binds to the LBD of the GAL4 (DBD)-ER α (LBD) fusion protein, the protein binds to the UAS, resulting in expression of beta-lactamase.

For `Oc1ccc2ccc(O)cc2c1` [2,7-NDO, 2,7 Napthalene diol], the 50% effective concentration (EC50) turned out to be 32000 nM; the “estrogenic activity on ERα cells compared with BPA, BPS and BP” value is “much lower estrogenic activity”.

As for `O=S(=O)(c1ccc(O)cc1)c1ccc(O)cc1` [BPS, 4,4′-dihydroxydiphenyl sulfone, reference compound], the EC50 was found to be 791 nM.

In the case of `Oc1cc2ccccc2cc1O` [2,3-NDO, 2,3 Napthalene diol], the negative-log EC50 (pEC50) was at most 4.52; the EC50 was above 79100 nM; the “estrogenic activity on ERα cells compared with BPA, BPS and BP” value is reported as “much lower estrogenic activity”.

As for `Oc1cccc2c(O)cccc12` [1,5-NDO, 1,5 Naphthalene diol], the pEC50 is at most 4.52; the EC50 was above 79100 nM; the “estrogenic activity on ERα cells compared with BPA, BPS and BP” value is on record as “much lower estrogenic activity”.
